Results from patent US8507554B2 (priority 2006, dated 2013).

Legend:
Vibrio harveyi BB886 = assay: Bioluminescence assay of quorum-sensing antagonistic ability with reporter strain Vibrio harveyi BB886; type: cell-based; conditions: 2 hours
Procedure: Quorum-sensing antagonistic ability of 2-(phenylcarbonothioylthio) acetyl homoserine lactone as described in Formula 8 was evaluated using Vibrio harveyi strain BB886 which responds to the AI-1, i.e., N-(3-hydroxybutanoyl)-1-homoserine lactone (3-OH—C4-HSL) as reporter strain. Vibrio harveyi strain BB886 was grown in LBS medium (10 g/L tryptone, 5 g/L yeast extract, 20 g/L NaCl) at 30° C. For the bioluminescence assay, an overnight culture was diluted 100-fold in a sterile AI bioassay (AB) medium (300 mM NaCl, 50 mM MgSO4, 0.2% (w/v) vitamin-free casamino acid, 10 mM potassium phosphate, 1 mM 1-arginine, 1% glycerol; pH 7.5).
After vaporizing chloroform in 4 test tubes at 30° C. for 2 hours, 4.0 mL of the diluted reporter strain culture was added to No. 1˜No. 4 test tubes and incubated at 30° C. Luminescence measurements were performed after 2 hours of incubation using a luminescence meter (Thermo Electron Co.). Bacterial cell density was measured by optical densities at 600 nm (OD600) using a UV spectrophotometer (HP8452A, H.P.). The antagonist activities of 2-(phenylcarbonothioylthio) acetyl homoserine lactone were expressed as a specific luminescence; relative light units/OD600. […]

P. aeruginosa [1] = assay: Microscopy of P. aeruginosa biofilm grown on specimens for 48 hours; type: cell-based, Pseudomonas aeruginosa; conditions: biofilm grown 48 hours
Procedure: Specimens were set in nutrient flasks containing compounds according to the first exemplary embodiment 1, comparative examples 1 and 2. Biofilm was grown on the specimens for 48 hours. The specimen were examined using microscope. Furthermore, specimens were set in nutrient flasks containing compounds according to exemplary embodiment 6 and comparative example 2. Biofilm on the specimens was grown for 48 hours. The specimens were examined using a microscope.

P. aeruginosa [2] = assay: Inhibiting ability against biofilm formation: count of adhesive P. aeruginosa on specimen surface after 4 hours; type: cell-based, Pseudomonas aeruginosa; conditions: 10 μmol/L, table shows Comparative example 1 (distilled water) = 100
Procedure: Inhibiting ability against biofilm formation of quorum-sensing antagonist prepared according to exemplary embodiments 1-7 was evaluated.
Specimen was set in nutrient flask containing 10 μmol/L of quorum-sensing antagonist prepared according to exemplary embodiments 1-7 and P. aeruginosa which has strong adhesive character on surface. Numbers of adhesive P. aeruginosa on surface were counted after 4 hours. Distilled water was poured into nutrient flask instead of quorum-sensing antagonist as a comparison example 1. Numbers of adhesive P. aeruginosa on surface were counted after 4 hours. […] Numbers of adhesive P. aeruginosa on surface were counted after 4 hours. […]

[3] = test system: Agrobacterium tumefaciens A136(pTiA136, pCF218, pCF372); assay: LacZ luminescence assay of quorum-sensing antagonistic ability with reporter strain A. tumefaciens A136; type: cell-based; conditions: 0.5 μM autoinducer 3-oxo-C8-HSL plus 5 μM of compound
Procedure: A. tumefaciens A136 (pTiA136, pCF218, and pCF372) was cultured in Luria-Bertani (LB) media with 50 μg/mL spectinomycin and 4.5 μg/mL tetracycline at 30° C. For the bioassay of 2-(phenylcarbonothioylthio) acetyl homoserine lactone, an overnight culture was diluted at 1:100 and incubated up to an optical density of 0.3 at 600 nm (OD600) at 30° C.
No. 1 solution contained 0.5 μM of N-3-oxootanoyl homoserine lactone.
After vaporizing chloroform in 2 test tubes at 30° C. for 2 hours, 4.0 mL of the diluted reporter strain culture was added to No. 1 and No. 2 test tubes.
LacZ quantative analysis for test tubes described above was performed using Tropix-plus kit (Applied Biosystems, USA). Luminescence measurements were performed after 2 hours of incubation using a luminescence meter (Thermo Electron Co.). Bacterial cell density was measured by optical densities at 600 nm (OD600) using a UV spectrophotometer (HP8452A, H. P.). The antagonist activities of 2-(phenylcarbonothioylthio) acetyl homoserine lactone were expressed as a specific luminescence; relative light units/OD600.

[4] = test system: E. coli DH5α co-transformed by pJN105L (LasR expression plasmid) and pSC11 (lasI::lacZ fusion reporter plasmid); assay: LacZ bioassay of quorum-sensing antagonistic ability with co-transformed E. coli DH5α (LasR reporter); type: cell-based; conditions: 1 μM autoinducer 3-oxo-C12-HSL plus 1, 2 or 10 μM of compound
Procedure: Transformant E. coli was cultured in Luria-Bertani (LB) broth with 10 μg/mL gentamicin and 50 μg/mL ampicillin at 37° C.
For LacZ bioassay of 2-(phenylcarbonothioylthio) acetyl homoserine lactone, an overnight culture was diluted at 1:100 and incubated up to an optical density of 0.3 at 600 nm (OD600) at 30° C. Then, 0.4% arabinose was added.
After vaporizing chloroform in 4 test tubes at 37° C. for 2 hours, 4.0 mL of the diluted reporter strain culture was added to No. 1˜No. 4 test tubes.
LacZ Bioassay for test tubes described above was performed using Tropix-plus kit (Applied Biosystems, USA). Luminescence measurements were performed after 2 hours of incubation using a luminescence meter (Thermo Electron Co.). Bacterial cell density was measured by optical densities at 600 nm (OD600) using a UV spectrophotometer (HP8452A, H.P.).
The antagonist activities of 2-(phenylcarbonothioylthio) acetyl homoserine lactone were expressed as a specific luminescence; relative light units/OD600.

Structure (SMILES)	% of adhesive P. aeruginosa relative to comparative example (P. aeruginosa [2])	further results
C[C@@H](O)CC(=O)N[C@H]1CCOC1=O [3-hydroxybutanoylhomoserine lactone, N-(3-hydroxybutanoyl)-1-homoserine lactone, reference compound]	–	luminescence intensity per V. harveyi (relative light units/OD600) (Vibrio harveyi BB886; sample containing only 1 μM autoinducer): relatively high
CCCCCC(=O)CC(=O)N[C@H]1CCOC1=O [Autoinducer]	–	P. aeruginosa attached on specimen (microscopic image) (P. aeruginosa [1]): plentifully observed
CCCCCCCCCC(=O)CC(=O)N[C@H]1CCOC1=O [Comparative example 2, N-3-oxododecanoylhomoserinelactone, reference compound]	190%	–
O=C(CSc1ccncc1)NC1CCOC1=O (stereo not shown) [Example 1, N-(2-oxo-tetrahydrofuran-3-yl)-2-(pyridin-4-ylthio)acetamide]	40%	–
O=C(CSc1ncccn1)NC1CCOC1=O (stereo not shown) [Example 2]	51%	–
O=C(O)CSCC(=O)NC1CCOC1=O (stereo not shown) [Example 3, 2-(2-oxo-2-(2-oxo-tetrahydrofuran-3-ylamino)ethylthio)acetic acid]	33%	–
O=C(O)CSCCSCC(=O)NC1CCOC1=O (stereo not shown) [Example 4, 2-(2-(2-oxo-2-(2-oxo-tetrahydrofuran-3-ylamino)ethylthio)ethylthio)acetic acid]	13%	–
CSCC(=O)NC1CCOC1=O (stereo not shown) [Example 5, 2-(methylthio)-N-(2-oxo-tetrahydrofuran-3-yl)acetamide]	30%	–
O=C(CSC(=S)c1ccccc1)NC1CCOC1=O (stereo not shown) [Example 6, 2-(phenylcarbonothioylthio)acetyl homoserine lactone]	20%	luminescence intensity per A. tumefaciens A136 (relative light units/OD600) [3]: decreased remarkably; luminescence intensity per V. harveyi (relative light units/OD600) (Vibrio harveyi BB886; 1 μM autoinducer 3-OH-C4-HSL plus 1, 5 or 10 μM of compound): decreased remarkably; luminescence intensity per co-transformed E. coli DH5α (relative light units/OD600) [4]: decreased remarkably
O=C(O)CSC(=S)SCC(=O)NC1CCOC1=O (stereo not shown) [Example 7]	30%	–
